Among the test systems are SK-OV-3; UO-31; UACC-257; HT-29; SN12C; CCRF-CEM; OVCAR-5; U-251; SK-MEL-28; UACC-62; SF-539; RPMI-8226; SNB-75; HCC 2998; OVCAR-3; A498; HCT-15; IGROV-1; HCT-116; Hs-578T.
Common to all, as to assay: NCI anticancer screen, dose series, 48 h

Each structure is given as a SMILES string.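 Exposure lasted 48 hours, with cells grown in 96-well plates and compounds tested at five concentrations. GI50 marks 50% less growth.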 Calls of active or inactive are those of the source. No stated cut-off is given here; in the data, active = GI50 up to about 1.1 µM and inactive = higher. Bounds are passed on as bounds.

With `Cc1cc(C)n(-c2ccnc3cc(Cl)ccc23)n1`, the GI50 in the experiment on SK-OV-3 was > 100 µM (inactive); in the experiment with UO-31, 91.6 µM (inactive); with UACC-257, > 100 µM (inactive); with HT-29, > 100 µM (inactive); in the experiment on SN12C it was > 100 µM (inactive); in the experiment with CCRF-CEM it was > 100 µM (inactive). In addition, the GI50 in the experiment with OVCAR-5, in the experiment on U-251, in the experiment on SK-MEL-28, in the experiment on UACC-62, in the experiment on SF-539 and with RPMI-8226 was > 100 µM (inactive) each time. Further, the GI50 in the experiment on SNB-75 is > 100 µM (inactive); in the experiment with HCC 2998, > 100 µM (inactive); in the experiment on OVCAR-3 it was > 100 µM (inactive); with A498, > 100 µM (inactive); in the experiment on HCT-15, more than 100 µM; with IGROV-1 it was > 100 µM (inactive). Besides, the GI50 in the experiment with HCT-116 is > 100 µM (inactive).

As for `Cc1ccc(C)n2c1nc1ccc3ccccc3c12`, the GI50 in the experiment on SK-OV-3 is > 100 µM (inactive); in the experiment on UO-31, 61 µM (inactive); in the experiment with UACC-257, > 100 µM (inactive); in the experiment on HT-29 it was > 100 µM (inactive); in the experiment with SN12C, > 100 µM (inactive); in the experiment with CCRF-CEM, > 100 µM (inactive). For the same molecule, the GI50 with OVCAR-5 was > 100 µM (inactive); with U-251 it was > 100 µM (inactive); in the experiment on Hs-578T it was 49.9 µM (inactive); with SK-MEL-28 it was > 100 µM (inactive); in the experiment with UACC-62, 53.2 µM (inactive); in the experiment on SF-539, > 100 µM (inactive). Moreover, the GI50 was > 100 µM (inactive) in the experiment on RPMI-8226; 17.3 µM (inactive) in the experiment on SNB-75; > 100 µM (inactive) with HCC 2998; > 100 µM (inactive) in the experiment on OVCAR-3; more than 100 µM in the experiment with HCT-15; > 100 µM (inactive) with IGROV-1.

For `BrC1=C(Br)C2(SCCS2)[C@H]2C[C@@H]1c1ccccc12`, the GI50 with SK-OV-3 was > 46 µM (inactive); in the experiment on UO-31 it was 29.4 µM (inactive); with UACC-257, 52.6 µM (inactive); in the experiment with HT-29, 10.2 µM (inactive); in the experiment with SN12C, > 91.2 µM (inactive); with CCRF-CEM, 14.6 µM (inactive). The GI50 with OVCAR-5 is > 100 µM (inactive); in the experiment on U-251, 37.8 µM (inactive); with SK-MEL-28, 97.9 µM (inactive); in the experiment on UACC-62 it was 65.8 µM (inactive); in the experiment with SF-539 it was 41.3 µM (inactive); in the experiment with RPMI-8226, 13.9 µM (inactive). For the same molecule, the GI50 with SNB-75 was 16.2 µM (inactive); with HCC 2998 it was 21.3 µM (inactive); with OVCAR-3 it was > 100 µM (inactive); in the experiment with A498, > 100 µM (inactive); in the experiment with HCT-15 it was 17.8 µM; in the experiment with IGROV-1, 55 µM (inactive). Further, the GI50 in the experiment with HCT-116 was 13.1 µM (inactive).

As to `O=[As](O)(O)c1cc(/N=N/c2ccc(-c3ccc(/N=N/c4cc([As](=O)(O)O)c(O)cc4O)cc3)cc2)c(O)cc1O`, the GI50 was > 100 µM (inactive) in the experiment with SK-OV-3; > 100 µM (inactive) in the experiment with UO-31; > 100 µM (inactive) with UACC-257; > 95.1 µM (inactive) in the experiment on HT-29; > 100 µM (inactive) with SN12C; > 45.8 µM (inactive) in the experiment on CCRF-CEM. For the same molecule, the GI50 in the experiment on OVCAR-5 is > 69.5 µM (inactive); with U-251 it was > 100 µM (inactive); in the experiment on SK-MEL-28, > 100 µM (inactive); in the experiment with UACC-62, > 100 µM (inactive); in the experiment on SF-539 it was > 74.1 µM (inactive); with RPMI-8226 it was > 100 µM (inactive). Further, the GI50 with SNB-75 is > 100 µM (inactive); with HCC 2998, > 100 µM (inactive); in the experiment with OVCAR-3, > 52.8 µM (inactive); in the experiment with A498, > 56 µM (inactive); with HCT-15, 97.1 µM; in the experiment with IGROV-1, > 100 µM (inactive). Besides, the GI50 with HCT-116 was > 100 µM (inactive).

In the case of `O=C(O)c1cc(Cl)cc2c1NC1(N2)C(=O)Nc2ccccc21` (stereo unspecified), the GI50 was > 100 µM (inactive) in the experiment with SK-OV-3; > 100 µM (inactive) in the experiment on UO-31; > 100 µM (inactive) with UACC-257; 78.5 µM (inactive) in the experiment on HT-29; > 100 µM (inactive) in the experiment with SN12C; > 100 µM (inactive) with CCRF-CEM. Also, the GI50 is > 100 µM (inactive) in the experiment with OVCAR-5; 42.5 µM (inactive) with U-251; > 100 µM (inactive) with SK-MEL-28; > 100 µM (inactive) in the experiment on UACC-62; > 100 µM (inactive) in the experiment on SF-539; > 100 µM (inactive) with RPMI-8226. For the same molecule, the GI50 in the experiment on SNB-75 is 97.1 µM (inactive); in the experiment on HCC 2998, > 100 µM (inactive); in the experiment on OVCAR-3, > 100 µM (inactive); in the experiment on A498, > 100 µM (inactive); in the experiment on HCT-15, 45.4 µM; in the experiment on IGROV-1 it was 33.3 µM (inactive). In addition, the GI50 with HCT-116 is 56.4 µM (inactive).

As for `Nc1nc(N)c(-c2ccccc2)c(CCC(=O)Nc2ccc(Cl)cc2)n1`, the GI50 with SK-OV-3, in the experiment on UO-31, with UACC-257, with HT-29, in the experiment on SN12C and in the experiment on CCRF-CEM was > 100 µM (inactive) in each case. The GI50 with OVCAR-5, in the experiment with U-251, in the experiment on SK-MEL-28, in the experiment with UACC-62, in the experiment with SF-539 and in the experiment on RPMI-8226 was > 100 µM (inactive) each time. In addition, the GI50 with SNB-75 was > 100 µM (inactive); in the experiment with HCC 2998, > 100 µM (inactive); in the experiment with OVCAR-3, > 100 µM (inactive); in the experiment with A498, > 100 µM (inactive); in the experiment on HCT-15 it was more than 100 µM; with IGROV-1, > 100 µM (inactive). In addition, in the experiment on HCT-116, the GI50 is > 100 µM (inactive).

Consider `Cc1cccc(NC(=O)C(=O)C(C(=O)c2ccc3ccccc3c2)C2OC(=O)c3ccccc32)c1C` (stereo unspecified), for which the GI50 is 12.7 µM (inactive) in the experiment on SK-OV-3; 14.5 µM (inactive) in the experiment on UO-31; 10.7 µM (inactive) in the experiment on UACC-257; 28.1 µM (inactive) with HT-29; 15.9 µM (inactive) in the experiment with SN12C; 8.02 µM (inactive) in the experiment on CCRF-CEM. The GI50 is 21.7 µM (inactive) in the experiment with OVCAR-5; 5.21 µM (inactive) in the experiment with U-251; 5.2 µM (inactive) in the experiment on SK-MEL-28; 10.4 µM (inactive) with UACC-62; 6.53 µM (inactive) in the experiment with SF-539; 6.98 µM (inactive) in the experiment on RPMI-8226. For the same molecule, the GI50 in the experiment with SNB-75 was 8.49 µM (inactive); in the experiment with HCC 2998 it was 6.03 µM (inactive); with OVCAR-3, 12.9 µM (inactive); with A498 it was 10.1 µM (inactive); in the experiment on HCT-15, 15.5 µM; in the experiment with IGROV-1, 17.5 µM (inactive). Also, in the experiment with HCT-116, the GI50 was 9.68 µM (inactive).

As to `Cc1cccc(Cl)c1NC(=O)c1cccc([N+](=O)[O-])c1O`, the GI50 in the experiment on SK-OV-3 is 43.2 µM (inactive); in the experiment with UO-31 it was 19.8 µM (inactive); in the experiment with UACC-257 it was 28.4 µM (inactive); in the experiment on HT-29, 41.8 µM (inactive); in the experiment on SN12C it was 31.9 µM (inactive); in the experiment on CCRF-CEM, 73.5 µM (inactive). Besides, the GI50 in the experiment on OVCAR-5 was 23.9 µM (inactive); in the experiment on U-251, 33.7 µM (inactive); in the experiment on SK-MEL-28, 41.5 µM (inactive); with UACC-62 it was 25.4 µM (inactive); in the experiment with SF-539, 26.8 µM (inactive); with RPMI-8226, 21.2 µM (inactive). Also, the GI50 is 33.9 µM (inactive) with SNB-75; 31.7 µM (inactive) with HCC 2998; 27.5 µM (inactive) with OVCAR-3; 33 µM (inactive) with A498; 35.6 µM in the experiment with HCT-15; 34.5 µM (inactive) with IGROV-1. In the experiment with HCT-116, the GI50 was 43.3 µM (inactive).

Source of the values: ChEMBL document CHEMBL1201862, “PubChem BioAssay data set” (2004).
